{
  "source": "paper PMC9021288",
  "about": "(Nature Communications, 2022)",
  "key": {"hKV 1.5": {"molecular_target": "T1, hKV 1.5 (Homo sapiens, UniProt P22460)", "T1 construct": "Metrion Biosciences", "T1 sequence (P22460 whole entry)": "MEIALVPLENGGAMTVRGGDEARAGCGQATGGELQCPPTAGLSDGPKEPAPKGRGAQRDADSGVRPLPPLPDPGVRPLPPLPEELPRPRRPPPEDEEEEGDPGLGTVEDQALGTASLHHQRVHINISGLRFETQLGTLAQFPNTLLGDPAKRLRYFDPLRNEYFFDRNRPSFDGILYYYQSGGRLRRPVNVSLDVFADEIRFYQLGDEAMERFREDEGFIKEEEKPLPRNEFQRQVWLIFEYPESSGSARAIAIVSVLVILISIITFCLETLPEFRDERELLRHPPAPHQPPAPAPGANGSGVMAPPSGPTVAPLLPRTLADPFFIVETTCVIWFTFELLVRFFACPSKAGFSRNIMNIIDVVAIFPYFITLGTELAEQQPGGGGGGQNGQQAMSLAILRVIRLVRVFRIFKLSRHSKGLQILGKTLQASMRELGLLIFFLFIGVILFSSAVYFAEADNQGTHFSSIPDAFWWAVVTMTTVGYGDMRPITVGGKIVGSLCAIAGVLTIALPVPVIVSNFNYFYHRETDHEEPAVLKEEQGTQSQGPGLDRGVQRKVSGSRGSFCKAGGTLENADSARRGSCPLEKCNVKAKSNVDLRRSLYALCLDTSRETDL", "assay": "Manual patch clamp", "assay_type": "cell-based", "conditions": "for Charge / Peak current: single cells and Mean, mean", "procedure": "(§1) Safety studies were performed by commercial services using their standard protocols. […] Genotoxicity was investigated using the Ames test (Bacterial Reverse Mutation Assay) (Covance Laboratories Ltd, North Yorkshire, England). In vitro mammalian cell micronucleus screening assay was studied in human peripheral blood lymphocytes (BioReliance Corporation, Rockville, USA). Cardiotoxicity was determined against the hERG channel in an automated patch clamp assay using the Qpatch or against the hNaV 1.5, hKV 1.5 and hCaV 1.2 using a manual patch-clamp technique (Metrion Biosciences, Cambridge, UK). Cytotoxicity in human and rat primary hepatocytes was assessed using the CellTiter-Blue assay performed by commercial services (KaLy-Cell). The viability of HepG2 cells was monitored through the addition of 1 mM resazurin. Following 6 h incubation, the relative amount of reduced resazurin was detected in a fluorimeter and compared to the assay controls (vehicle: 0.1% DMSO and positive control: 10 µM puromycin)."}, "hCaV 1.2": {"molecular_target": "T2, hCaV 1.2 (Homo sapiens, UniProt Q13936)", "T2 construct": "Metrion Biosciences", "T2 sequence (Q13936 whole entry)": "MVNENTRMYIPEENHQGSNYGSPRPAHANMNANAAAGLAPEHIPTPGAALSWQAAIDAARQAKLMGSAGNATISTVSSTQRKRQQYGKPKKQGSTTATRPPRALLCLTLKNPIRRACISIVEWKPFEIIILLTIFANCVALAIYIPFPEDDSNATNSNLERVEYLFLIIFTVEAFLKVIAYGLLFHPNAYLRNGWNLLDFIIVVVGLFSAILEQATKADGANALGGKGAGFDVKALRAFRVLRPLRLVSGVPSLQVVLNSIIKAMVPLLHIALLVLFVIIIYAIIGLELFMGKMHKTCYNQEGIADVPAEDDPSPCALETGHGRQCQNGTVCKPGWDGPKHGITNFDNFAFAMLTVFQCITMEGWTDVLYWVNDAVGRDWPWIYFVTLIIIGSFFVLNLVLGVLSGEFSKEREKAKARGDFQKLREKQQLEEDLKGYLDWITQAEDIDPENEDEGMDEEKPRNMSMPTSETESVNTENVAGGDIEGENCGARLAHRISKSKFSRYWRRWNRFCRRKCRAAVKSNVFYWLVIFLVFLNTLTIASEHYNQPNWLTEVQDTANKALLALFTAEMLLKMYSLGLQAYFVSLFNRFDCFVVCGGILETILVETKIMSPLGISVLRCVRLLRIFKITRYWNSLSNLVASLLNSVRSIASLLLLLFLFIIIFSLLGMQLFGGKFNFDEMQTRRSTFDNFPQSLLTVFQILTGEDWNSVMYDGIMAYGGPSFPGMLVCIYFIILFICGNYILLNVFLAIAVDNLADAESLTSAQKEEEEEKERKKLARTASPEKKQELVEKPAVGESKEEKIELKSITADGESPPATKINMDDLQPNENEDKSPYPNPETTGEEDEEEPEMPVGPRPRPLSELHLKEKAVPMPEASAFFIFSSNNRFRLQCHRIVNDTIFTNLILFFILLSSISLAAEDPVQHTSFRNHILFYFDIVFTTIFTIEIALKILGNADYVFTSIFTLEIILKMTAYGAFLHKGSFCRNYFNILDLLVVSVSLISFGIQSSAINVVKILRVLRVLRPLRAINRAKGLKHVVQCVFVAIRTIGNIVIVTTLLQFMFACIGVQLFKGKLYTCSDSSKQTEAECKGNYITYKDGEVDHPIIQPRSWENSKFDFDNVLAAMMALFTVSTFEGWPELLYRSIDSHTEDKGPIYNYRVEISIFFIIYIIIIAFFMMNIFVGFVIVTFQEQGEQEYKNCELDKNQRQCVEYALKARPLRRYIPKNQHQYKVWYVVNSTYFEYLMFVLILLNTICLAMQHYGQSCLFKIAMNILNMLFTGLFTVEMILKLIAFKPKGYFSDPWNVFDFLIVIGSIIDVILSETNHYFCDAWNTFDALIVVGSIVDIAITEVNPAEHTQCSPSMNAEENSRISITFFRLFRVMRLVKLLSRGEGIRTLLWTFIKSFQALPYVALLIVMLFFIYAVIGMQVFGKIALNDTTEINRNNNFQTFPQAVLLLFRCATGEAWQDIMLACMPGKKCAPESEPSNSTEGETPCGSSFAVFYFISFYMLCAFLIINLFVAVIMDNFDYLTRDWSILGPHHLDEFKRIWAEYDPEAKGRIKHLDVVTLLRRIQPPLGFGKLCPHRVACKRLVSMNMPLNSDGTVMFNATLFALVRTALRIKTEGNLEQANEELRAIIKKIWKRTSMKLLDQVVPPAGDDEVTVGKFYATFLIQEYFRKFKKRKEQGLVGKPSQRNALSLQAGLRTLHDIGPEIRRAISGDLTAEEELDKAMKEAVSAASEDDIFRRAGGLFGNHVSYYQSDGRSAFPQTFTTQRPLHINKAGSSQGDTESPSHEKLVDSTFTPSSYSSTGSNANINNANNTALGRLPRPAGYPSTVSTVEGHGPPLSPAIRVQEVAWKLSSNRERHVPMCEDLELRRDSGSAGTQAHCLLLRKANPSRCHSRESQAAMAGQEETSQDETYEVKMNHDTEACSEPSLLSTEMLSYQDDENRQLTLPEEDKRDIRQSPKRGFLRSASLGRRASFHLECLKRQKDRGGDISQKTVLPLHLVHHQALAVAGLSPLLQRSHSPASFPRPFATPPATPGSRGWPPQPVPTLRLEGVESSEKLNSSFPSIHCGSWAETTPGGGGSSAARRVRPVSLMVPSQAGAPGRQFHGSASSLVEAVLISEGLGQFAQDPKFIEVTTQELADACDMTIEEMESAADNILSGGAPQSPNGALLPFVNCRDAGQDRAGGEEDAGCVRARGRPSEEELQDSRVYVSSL", "T2 sequence (Q08289 whole entry partner)": "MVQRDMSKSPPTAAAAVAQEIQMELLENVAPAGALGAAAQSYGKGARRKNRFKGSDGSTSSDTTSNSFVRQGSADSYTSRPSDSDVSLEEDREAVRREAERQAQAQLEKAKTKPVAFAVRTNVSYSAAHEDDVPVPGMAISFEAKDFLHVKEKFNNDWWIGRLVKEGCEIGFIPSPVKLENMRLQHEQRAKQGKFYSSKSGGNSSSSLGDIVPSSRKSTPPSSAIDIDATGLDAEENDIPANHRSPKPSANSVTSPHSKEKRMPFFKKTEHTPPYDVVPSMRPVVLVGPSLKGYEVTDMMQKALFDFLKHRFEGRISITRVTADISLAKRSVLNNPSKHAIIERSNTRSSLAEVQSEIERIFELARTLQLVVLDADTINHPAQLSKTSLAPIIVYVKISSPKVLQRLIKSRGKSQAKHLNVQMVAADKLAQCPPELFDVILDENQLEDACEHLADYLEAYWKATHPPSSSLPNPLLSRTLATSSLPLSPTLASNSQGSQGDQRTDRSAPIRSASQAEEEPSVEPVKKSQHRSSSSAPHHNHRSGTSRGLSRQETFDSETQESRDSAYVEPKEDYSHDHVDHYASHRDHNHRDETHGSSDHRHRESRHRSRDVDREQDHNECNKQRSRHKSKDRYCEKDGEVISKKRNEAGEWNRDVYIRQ", "T2 sequence (P54289 25-946 partner limits assumed)": "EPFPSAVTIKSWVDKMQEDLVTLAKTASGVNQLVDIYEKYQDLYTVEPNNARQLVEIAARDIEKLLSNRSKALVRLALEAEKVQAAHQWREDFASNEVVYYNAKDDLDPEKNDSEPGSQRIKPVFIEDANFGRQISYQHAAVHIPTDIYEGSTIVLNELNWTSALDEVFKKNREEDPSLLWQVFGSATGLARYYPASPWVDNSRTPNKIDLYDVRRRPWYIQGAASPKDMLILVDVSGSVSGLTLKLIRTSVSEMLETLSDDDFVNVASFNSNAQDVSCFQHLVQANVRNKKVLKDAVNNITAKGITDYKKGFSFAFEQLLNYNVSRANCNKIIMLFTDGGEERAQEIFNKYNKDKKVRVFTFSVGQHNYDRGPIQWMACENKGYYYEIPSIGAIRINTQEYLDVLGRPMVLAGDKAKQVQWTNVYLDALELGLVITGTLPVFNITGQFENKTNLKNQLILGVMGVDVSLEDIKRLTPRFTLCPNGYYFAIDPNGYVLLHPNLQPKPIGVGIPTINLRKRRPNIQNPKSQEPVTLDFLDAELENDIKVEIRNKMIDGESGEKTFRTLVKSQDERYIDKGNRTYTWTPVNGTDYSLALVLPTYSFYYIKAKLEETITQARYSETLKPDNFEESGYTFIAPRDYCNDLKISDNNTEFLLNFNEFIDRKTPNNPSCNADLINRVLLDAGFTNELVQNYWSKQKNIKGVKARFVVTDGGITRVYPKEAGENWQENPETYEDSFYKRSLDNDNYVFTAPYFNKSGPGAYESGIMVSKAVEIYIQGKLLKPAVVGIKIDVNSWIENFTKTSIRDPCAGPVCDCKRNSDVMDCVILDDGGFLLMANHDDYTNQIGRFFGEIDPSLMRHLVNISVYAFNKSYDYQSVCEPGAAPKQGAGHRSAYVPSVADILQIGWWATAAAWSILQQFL", "T2 sequence (P54289 947-1103 partner limits assumed)": "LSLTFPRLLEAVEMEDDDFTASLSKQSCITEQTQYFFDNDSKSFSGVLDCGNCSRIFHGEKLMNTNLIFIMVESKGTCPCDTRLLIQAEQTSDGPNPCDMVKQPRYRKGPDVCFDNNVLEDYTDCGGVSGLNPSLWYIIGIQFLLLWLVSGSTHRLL", "assay": "Manual patch clamp", "assay_type": "cell-based", "conditions": "for Minimum current: single cells and Mean, mean", "procedure": "as §1"}, "hNaV 1.5": {"molecular_target": "T3, hNaV 1.5 (Homo sapiens, UniProt Q14524)", "T3 construct": "Metrion Biosciences", "assay": "Manual patch clamp", "assay_type": "cell-based", "conditions": "for Minimum current: single cells and Mean, mean", "procedure": "as §1"}, "panel of human enzymes": {"tested_on": "panel of human enzymes", "assay": "Off-target enzyme and uptake assays (Eurofins CEREP)", "assay_type": "biochemical", "conditions": "for % Inhibition of Control Values: Rep1, Rep2, Mean"}, "hERG channel": {"molecular_target": "T4, hERG channel (Homo sapiens, UniProt Q12809)", "T4 construct": "Metrion Biosciences", "assay": "Automated patch clamp (Qpatch)", "assay_type": "cell-based", "procedure": "as §1"}, "[1]": {"assay": "Solubility in PBS, FaSSIF, FeSSIF", "assay_type": "physicochemical"}, "[2]": {"tested_on": "P. falciparum NF54-HGL gametocytes", "design": "method as in earlier work", "conditions": "ref 15 (Schalkwijk et al.); read-out: Gametocyte IC50; cited from earlier work"}},
  "note": "Several values for one entry are separate records, joined by “and”; a condition that tells them apart may be missing. Equal values may be shown once.",
  "data": [
    {"compound": "C[C@@H](CNC(=O)[C@H](O)C(C)(C)CO)NC(=O)c1cc(F)c(F)cc1F", "note": "[MMV693183]", "values": [
      {"measurement": "Inhibition", "setting": "hKV 1.5; 10 µM", "value": 2.15, "unit": "%"},
      {"measurement": "IC50", "setting": "hKV 1.5; hKV 1.5", "value": "> 10", "unit": "µM"},
      {"measurement": "Charge", "setting": "hKV 1.5; hKv1.5, 300nM", "value": 4.53, "unit": "%"},
      {"measurement": "Peak current", "setting": "hKV 1.5; hKv1.5, 300nM", "value": 0.19, "unit": "%"},
      {"measurement": "Peak current", "setting": "hKV 1.5; hKv1.5, 1uM", "value": 1.06, "unit": "%"},
      {"measurement": "Charge", "setting": "hKV 1.5; hKv1.5, 3uM", "value": 8.60, "unit": "%"},
      {"measurement": "Peak current", "setting": "hKV 1.5; hKv1.5, 3uM", "value": 0.58, "unit": "%"},
      {"measurement": "Peak current", "setting": "hKV 1.5; hKv1.5, 10uM", "value": 2.15, "unit": "%"},
      {"measurement": "Inhibition", "setting": "hCaV 1.2; 10 µM", "value": 24.20, "unit": "%"},
      {"measurement": "Minimum current", "setting": "hCaV 1.2; Cav1.2, 0.3uM", "value": 4.49, "unit": "%"},
      {"measurement": "Minimum current", "setting": "hCaV 1.2; Cav1.2, 1uM", "value": 7.60, "unit": "%"},
      {"measurement": "Minimum current", "setting": "hCaV 1.2; Cav1.2, 10uM", "value": 24.20, "unit": "%"},
      {"measurement": "IC50", "setting": "hCaV 1.2; hCaV 1.2", "value": "> 10", "unit": "µM"},
      {"measurement": "Inhibition", "setting": "hNaV 1.5; 10 µM", "value": 1.56, "unit": "%"},
      {"measurement": "IC50", "setting": "hNaV 1.5; hNav 1.5", "value": "> 10", "unit": "µM"},
      {"measurement": "Minimum current", "setting": "hNaV 1.5; hNav1.5, 300nM, P1", "value": 1.33, "unit": "%"},
      {"measurement": "Minimum current", "setting": "hNaV 1.5; hNav1.5, 300nM, P10", "value": 2.55, "unit": "%"},
      {"measurement": "Minimum current", "setting": "hNaV 1.5; hNav1.5, 1uM, P10", "value": 0.96, "unit": "%"},
      {"measurement": "Minimum current", "setting": "hNaV 1.5; hNav1.5, 3uM, P1", "value": -2.90, "unit": "%"},
      {"measurement": "Minimum current", "setting": "hNaV 1.5; hNav1.5, 3uM, P10", "value": 2.43, "unit": "%"},
      {"measurement": "Minimum current", "setting": "hNaV 1.5; hNav1.5, 10uM, P1", "value": -1.24, "unit": "%"},
      {"measurement": "Minimum current", "setting": "hNaV 1.5; hNav1.5, 10uM, P10", "value": 1.56, "unit": "%"},
      {"measurement": "induction, GABA transaminase", "setting": "panel of human enzymes; 10 µM", "value": 30.7, "unit": "%"},
      {"measurement": "inhibition, HDAC11", "setting": "panel of human enzymes; 10 µM", "value": 36.9, "unit": "%"},
      {"measurement": "inhibition/induction, all other enzyme and uptake assays", "setting": "panel of human enzymes; 10 µM", "value": "less than 25%"},
      {"measurement": "% Inhibition of Control Values", "setting": "panel of human enzymes; ATPase (Na+/K+)", "value": "-2.75% and -1.9% and -3.6%"},
      {"measurement": "% Inhibition of Control Values", "setting": "panel of human enzymes; CENP-E (h)", "value": "-0.4% and -0.6% and -0.2%"},
      {"measurement": "% Inhibition of Control Values", "setting": "panel of human enzymes; COX1(h)", "value": "-4.65% and -5.4% and -3.9%"},
      {"measurement": "% Inhibition of Control Values", "setting": "panel of human enzymes; Eg5 (h)", "value": "-5.55% and -2% and -9.1%"},
      {"measurement": "% Inhibition of Control Values", "setting": "panel of human enzymes; GABA transaminase", "value": "-30.7% and -29.5% and -31.9%"},
      {"measurement": "% Inhibition of Control Values", "setting": "panel of human enzymes; HDAC6 (h)", "value": "-14.7% and -18.7% and -10.7%"},
      {"measurement": "% Inhibition of Control Values", "setting": "panel of human enzymes; HDAC11 (h)", "value": "36.9% and 32.5% and 41.3%"},
      {"measurement": "% Inhibition of Control Values", "setting": "panel of human enzymes; MAO-A (h)", "value": "1.7% and -0.1% and 3.5%"},
      {"measurement": "% Inhibition of Control Values", "setting": "panel of human enzymes; MAO-B (h) recombinant enzyme", "value": -1.9, "unit": "%"},
      {"measurement": "% Inhibition of Control Values", "setting": "panel of human enzymes; PDE1B (h)", "value": "0.9% and -2.7% and 4.5%"},
      {"measurement": "% Inhibition of Control Values", "setting": "panel of human enzymes; PDE2A1 (h)", "value": "-1% and -4.3% and 2.3%"},
      {"measurement": "% Inhibition of Control Values", "setting": "panel of human enzymes; PDE3A (h)", "value": "1.1% and -1.7% and 3.9%"},
      {"measurement": "% Inhibition of Control Values", "setting": "panel of human enzymes; PDE5 (h) (non-selective)", "value": "-3.55% and -4.2% and -2.9%"},
      {"measurement": "% Inhibition of Control Values", "setting": "panel of human enzymes; acetylcholinesterase (h)", "value": "5.45% and 8.7% and 2.2%"},
      {"measurement": "% Inhibition of Control Values", "setting": "panel of human enzymes; phosphatase 1B (h) (PTP1B)", "value": "10.8% and 11.2% and 10.4%"},
      {"measurement": "% Inhibition of Control Values", "setting": "panel of human enzymes; phosphatase CDC25A (h)", "value": "-0.35% and -5% and 4.3%"},
      {"measurement": "% Inhibition of Control Values", "setting": "panel of human enzymes; sirtuin 1 (h) (inhibitor effect)", "value": "-1.45% and -1.9% and -1%"},
      {"measurement": "% Inhibition of Control Values", "setting": "panel of human enzymes; tyrosine hydroxylase", "value": "-0.5% and 2.4% and -3.4%"},
      {"measurement": "IC50", "setting": "hERG channel", "value": "> 10", "unit": "µM"},
      {"measurement": "solubility", "setting": "[1]; FaSSIF", "value": 25.5, "unit": "µM"},
      {"measurement": "solubility", "setting": "[1]; FeSSIF", "value": 25.0, "unit": "µM"},
      {"measurement": "solubility", "setting": "[1]; PBS", "value": 7100, "unit": "µg/mL"},
      {"measurement": "solubility", "setting": "[1]; fasted-state simulated intestinal fluid", "value": 9200, "unit": "µg/mL"},
      {"measurement": "solubility", "setting": "[1]; fed-state simulated intestinal fluid", "value": 9100, "unit": "µg/mL"}
    ]},
    {"compound": "CC(CNC(=O)C(O)C(C)(C)CO)NC(=O)CCc1ccccc1F", "note": "(stereo in doubt) [MMV689258]", "values": [
      {"measurement": "IC50", "setting": "[2]", "value": 0.012, "unit": "µM"}
    ]}
  ]
}
